Substitutions are numbered along the chain they refer to. In names and notes the source's numbering stands.
Assays:
[1] = target: T1, L. lactis NADH oxidase (H2O forming), NoxE, SEQ ID NO: 10 (Lactococcus lactis, UniProt Q9CIG9); experiment: NoxE kinetics, monitoring the oxidation of NAD(P)H at 340 nm; assay type: biochemical
T1 sequence (Q9CIG9 1-446): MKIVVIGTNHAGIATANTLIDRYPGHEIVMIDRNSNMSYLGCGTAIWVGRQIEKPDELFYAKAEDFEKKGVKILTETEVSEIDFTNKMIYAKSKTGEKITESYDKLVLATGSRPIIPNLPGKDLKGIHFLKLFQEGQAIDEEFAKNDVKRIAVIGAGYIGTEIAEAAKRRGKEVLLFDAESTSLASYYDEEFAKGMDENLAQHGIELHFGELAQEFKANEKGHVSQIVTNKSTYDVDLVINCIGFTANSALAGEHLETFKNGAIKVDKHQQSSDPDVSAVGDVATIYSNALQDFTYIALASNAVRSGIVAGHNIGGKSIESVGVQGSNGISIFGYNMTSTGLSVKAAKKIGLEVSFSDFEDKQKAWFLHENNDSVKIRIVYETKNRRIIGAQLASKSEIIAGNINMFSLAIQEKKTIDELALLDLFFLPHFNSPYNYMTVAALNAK

[2] = target: T2, G. stearothermophilus pyruvate dehydrogenase complex, engineered mutant (GsPDH-NADP, PDH^NADPH), E3 mutant E206V, G207R, A208K, S213R (E3^NADPH SEQ ID NO: 7); E1 (Geobacillus stearothermophilus, UniProt P11959, A208K/E206V/G188A/G192A/G207R/S213R); experiment: PDH kinetics, monitoring the reduction of NAD(P)^+ at 340 nm; assay type: biochemical
T2 construct: made in house; host or cells: E. coli
Experimental: (§1) The individual domains of G. stearothermophilus PDH were partially purified from E. coli lysates by heat prior to modification and reconstitution of the PDH complex. E1αβ, E2, or E3 containing lysates were incubated at 65° C. for 35 minutes to heat denature E. coli proteins followed by centrifugation at 30,000×g for 20 min to pellet the precipitated proteins. […] Next, the E2 domain was lipoated in the heated extract by the addition of 1 mM (±)-α-lipoic acid, 2 mM ATP, 3 mM MgCl2, and 50 μg of purified 6×His-LplA. The lipoation reaction was then allowed to proceed with gentle mixing overnight at 25° C., yielding lipoated E2 (E2lip). After lipoation, E1αβ, E2lip, and E3 were mixed in a 3:1:3 molar ratio and incubated for at least 1 hour at 25° C. to form the active GsPDH complex. The GsPDH complex was then isolated by ultracentrifugation (Beckman) for 4 hours at 95,000×g. […] The reconstituted complex was stored at 4° C. until use.

[3] = target: T3, G. stearothermophilus pyruvate dehydrogenase complex (GsPDH-NAD+, PDH^NADH), wild type (E1a SEQ ID NO: 1, E1b SEQ ID NO: 2, E2 SEQ ID NO: 3, E3^NADH SEQ ID NO: (Geobacillus stearothermophilus, UniProt P11959)); experiment: as above; assay type: biochemical
T3 construct: made in house; host or cells: E. coli
Experimental: as §1

[4] = substrate: NC(=O)c1ccc[n+]([C@@H]2O[C@H](COP(=O)(O)OP(=O)(O)OC[C@H]3O[C@@H](n4cnc5c(N)ncnc54)[C@H](O)[C@@H]3O)[C@@H](O)[C@H]2O)c1; experiment: as above; assay type: biochemical, G. stearothermophilus; settings: other: 50 mM Tris pH 7.5, 5 mM MgCl2, 5 mM pyruvate, 1 mM CoA, 0.5 mM NAD(P)+
[5] = substrate: NC(=O)c1ccc[n+]([C@@H]2O[C@H](COP(=O)(O)OP(=O)(O)OC[C@H]3O[C@@H](n4cnc5c(N)ncnc54)[C@H](OP(=O)(O)O)[C@@H]3O)[C@@H](O)[C@H]2O)c1; experiment: as above; assay type: biochemical, G. stearothermophilus; settings: other: 50 mM Tris pH 7.5, 5 mM MgCl2, 5 mM pyruvate, 1 mM CoA, 0.5 mM NAD(P)+
[6] = substrate: NC(=O)c1ccc[n+]([C@@H]2O[C@H](COP(=O)(O)OP(=O)(O)OC[C@H]3O[C@@H](n4cnc5c(N)ncnc54)[C@H](O)[C@@H]3O)[C@@H](O)[C@H]2O)c1; experiment: cells, lysate or membranes named; settings: other: 50 mM Tris pH 7.5, 5 mM MgCl2, 5 mM pyruvate, 1 mM CoA, 0.5 mM NAD(P)+
[7] = substrate: NC(=O)c1ccc[n+]([C@@H]2O[C@H](COP(=O)(O)OP(=O)(O)OC[C@H]3O[C@@H](n4cnc5c(N)ncnc54)[C@H](OP(=O)(O)O)[C@@H]3O)[C@@H](O)[C@H]2O)c1; experiment: cells, lysate or membranes named; settings: other: 50 mM Tris pH 7.5, 5 mM MgCl2, 5 mM pyruvate, 1 mM CoA, 0.5 mM NAD(P)+
[8] = substrate: NC(=O)C1=CN([C@@H]2O[C@H](COP(=O)(O)OP(=O)(O)OC[C@H]3O[C@@H](n4cnc5c(N)ncnc54)[C@H](O)[C@@H]3O)[C@@H](O)[C@H]2O)C=CC1; experiment: purified protein, by the assay type; settings: other: 100 mM tris-HCl pH 7.5, 5 mM MgCl2, 5 mM KCl, 0.2 mM NAD(P)H
[9] = substrate: NC(=O)C1=CN([C@@H]2O[C@H](COP(=O)(O)OP(=O)(O)OC[C@H]3O[C@@H](n4cnc5c(N)ncnc54)[C@H](OP(=O)(O)O)[C@@H]3O)[C@@H](O)[C@H]2O)C=CC1; experiment: purified protein, by the assay type; settings: other: 100 mM tris-HCl pH 7.5, 5 mM MgCl2, 5 mM KCl, 0.2 mM NAD(P)H

In the case of `NC(=O)C1=CN([C@@H]2O[C@H](COP(=O)(O)OP(=O)(O)OC[C@H]3O[C@@H](n4cnc5c(N)ncnc54)[C@H](O)[C@@H]3O)[C@@H](O)[C@H]2O)C=CC1` [NADH], the “Kcat ratio, NADH vs NADPH” value ([1]; Kcat greater with NADH than NADPH) is reported as 248.8 times and the “kcat/Km ratio, NADH vs NADPH” value ([1]; kcat/Km greater with NADH than NADPH) is reported as 9900 times.

`NC(=O)c1ccc[n+]([C@@H]2O[C@H](COP(=O)(O)OP(=O)(O)OC[C@H]3O[C@@H](n4cnc5c(N)ncnc54)[C@H](OP(=O)(O)O)[C@@H]3O)[C@@H](O)[C@H]2O)c1` [NADP+] was tested, and the “kcat ratio, NADP^+ vs NAD+” value ([2]; kcat higher with NADP^+ than NAD+) was 7.3 times and the “kcat/Km ratio, NADP^+ vs NAD+” value ([2]; kcat/Km higher with NADP^+ than NAD+) was 21 times.

For `NC(=O)c1ccc[n+]([C@@H]2O[C@H](COP(=O)(O)OP(=O)(O)OC[C@H]3O[C@@H](n4cnc5c(N)ncnc54)[C@H](O)[C@@H]3O)[C@@H](O)[C@H]2O)c1` [NAD+, nicotinamide adenine dinucleotide], the “kcat ratio, NAD^+ vs NADP^+” value ([3]; kcat higher with NAD^+ than NADP^+) was 11.2 times and the “kcat/Km ratio, NAD^+ vs NADP^+” value ([3]; kcat/Km higher with NAD^+ than NADP^+) was 1150 times.

B1: G. stearothermophilus pyruvate dehydrogenase complex, engineered mutant (GsPDH-NADP, PDH^NADPH), E3 mutant E206V, G207R, A208K, S213R (E3^NADPH SEQ ID NO: 7; … (protein)
chain: MVVGDFAIETETLVVGAGPGGYVAAIRAAQLGQKVTIVEKGNLGGVCLNVGCIPSKALISASHRYEQAKHSEEMGIKAENVTIDFAKVQEWKASVVKKLTGGVEGLLKGNKVEIVKGEAYFVDANTVRVVNGDSAQTYTFKNAIIATGSRPIELPNFKFSNRILDSTGALNLGEVPKSLVVIGGGYIAIELATAYANFGTKVTILVRKGEILRGFEKQMAAIIKKRLKKKGVEVVTNALAKGAEEREDGVTVTYEANGETKTIDADYVLVTVGRRPNTDELGLEQIGIKMTNRGLIEVDQQCRTSVPNIFAIGDIVPGPALAHKASYEGKVAAEAIAGHPSAVDYVAIPAVVFSDPECASVGYFEQQAKDEGIDVIAAKFPFAANGRALALNDTDGFLKLVVRKEDGVIIGAQIIGPNASDMIAELGLAIEAGMTAEDIALTIHAHPTLGEIAMEAAEVALGTPIHIITK
notes: made in house; host or cells: E. coli
With B1 the Km [4] was 452.7 ± 178 µM and the Km [5] was 157 ± 13 µM.

B2: G. stearothermophilus pyruvate dehydrogenase complex (GsPDH-NAD+, PDH^NADH), wild type (E1a SEQ ID NO: 1, E1b SEQ ID NO: 2, E2 SEQ ID NO: 3, E3^NADH SEQ ID NO: … (protein)
chain: B1 chain with A188G, A192G, V206E, R207G, K208A, R213S
In the case of B2, the Km [6] is reported as 13.38 ± 0.83 µM and the Km [7] is reported as 1381 ± 410 µM.

B3: L. lactis NADH oxidase (H2O forming), NoxE, SEQ ID NO: 10 (Lactococcus lactis subsp. lactis Il1403) (protein)
chain: T1 sequence (Q9CIG9 1-446)
With B3 the Km [8] was 74.93 ± 26 µM and the Km [9] was 2951.5 ± 770 µM.
